Publication PMC10865350, “Investigating Polypharmacology through Targeting Known Human Neutrophil Elastase Inhibitors to Proteinase 3” (Journal of Chemical Information and Modeling, 2024)
Like-named read-outs stand apart in the source and are kept apart here.

Tests used:
[1] = tested on: human neutrophil elastase (HNE); assay: HNE inhibition IC50 reported by Bayer HealthCare AG (literature values); type: biochemical; settings: 298.15 K; calculated from Bayer HealthCare AG IC50 values, Nussbaum et al. refs 9-11
From the text: To ensure we had the best models to represent the selected ligands and their interactions with the protein, we explored four different force field combinations for protein and ligands (Table 2) and compared the predicted values to published experimental data for HNE. […] The predicted free energies obtained with MSλD are provided in Table S3 together with the free energies derived from published experimental data.

[2] = tested on: human neutrophil elastase (HNE); settings: Bayer HealthCare AG value; cited from earlier work
[3] = target: T1, HNE (Homo sapiens, UniProt P08246); assay: Enzymatic activity assay, HNE (fluorogenic substrate MeOSuc-AAPV-AMC); type: biochemical; settings: best enantiomer for compounds 5-8
T1 construct: purchased Athens Research and Technology
T1 sequence (P08246 30-267): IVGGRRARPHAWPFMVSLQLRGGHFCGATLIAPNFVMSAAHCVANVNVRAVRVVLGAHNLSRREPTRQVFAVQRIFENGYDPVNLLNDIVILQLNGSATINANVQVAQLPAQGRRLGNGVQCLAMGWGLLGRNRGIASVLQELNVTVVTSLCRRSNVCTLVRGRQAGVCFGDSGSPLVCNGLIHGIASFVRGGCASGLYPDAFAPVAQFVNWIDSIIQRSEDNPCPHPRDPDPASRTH
Procedure: (§1) II.1 Experimental details
(§2) Chemicals. All chemicals and reagents were of analytical grade. Enzymes, PR3 and HNE, were purchased from Athens Research and Technology.
(§3) India) using published procedures.42 The substrate of HNE (MeOSuc-AAPV-AMC) was supplied by Santa Cruz Biotechnology.
(§4) Activity assay. The enzymatic assays for both PR3 and HNE were conducted according to the method published in (Budnjo et al., 2014) with minor modifications. Briefly, 0.5 nM of enzyme […]
(§5) same buffer containing the inhibitors at various concentrations for 30 min at RT. For PR3, the […]
(§6) 320, emission filter 420) at a final concentration of 5 μM while the HNE reaction was started by […]
(§7) at a final concentration of 5 μM. The fluorescent signal was read every 30 second for 30 min at 30 °C using a fluorescent plate reader (Tecan Spark). The enzymatic activity was measured from the initial linear portion of the slope (fluorescent signal/min) of the time-course curve of reaction progress. The activity data were produced in triplicates. Data were fitted using nonlinear regression analysis (GraphPad Prism v.9) to determine the IC50 values.

[4] = target: T2, Proteinase 3 (PR3) (Homo sapiens, UniProt P24158); assay: Enzymatic activity assay, PR3 (FRET peptide Abz-VADnVADYQ-EDDnp); type: biochemical; settings: best enantiomer for compounds 5-8
T2 construct: purchased Athens Research and Technology
T2 sequence (P24158 28-256): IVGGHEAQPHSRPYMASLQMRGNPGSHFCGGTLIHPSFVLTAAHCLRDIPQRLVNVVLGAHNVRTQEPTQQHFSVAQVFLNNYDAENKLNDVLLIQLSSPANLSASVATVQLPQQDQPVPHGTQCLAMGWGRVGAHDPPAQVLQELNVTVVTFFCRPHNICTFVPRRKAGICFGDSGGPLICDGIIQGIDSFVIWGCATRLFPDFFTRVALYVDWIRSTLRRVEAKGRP
Procedure: as §1, §2, §3, §4, §5, §6, §7

[5] = target: Proteinase 3 (PR3); assay: as above; type: biochemical, human; settings: selectivity: PR3 IC50 with respect to HNE IC50
Procedure: as §1, §2, §3, §4, §5, §6, §7

[6] = 0.5 nM enzyme, 5 μM substrate, triplicates, read-out: IC50 HNE
[7] = read-out: pIC50 HNE (converted)
[8] = 0.5 nM enzyme, 5 μM FRET peptide, triplicates, read-out: IC50 PR3

For `CC1=C(C#N)[C@@H](c2ccc(C#N)cc2)n2ncnc2N1c1cccc(C(F)(F)F)c1` [Compound 2], the “ΔGexpt HNE (ΔG = RTln(IC50))” value [1] is listed as -10.6 kcal/mol and the IC50 [2] is listed as 15 nM.

In the case of `CC1=C(C#N)[C@@H](c2ccc(C#N)cc2)n2nc(N)nc2N1c1cccc(C(F)(F)F)c1` [Compound 3], the “ΔGexpt HNE (ΔG = RTln(IC50))” value [1] is given as -11.7 kcal/mol and the IC50 [2] is given as 2.5 nM.

In the case of `COc1nc2n(n1)[C@H](c1ccc(C#N)cc1)C(C#N)=C(C)N2c1cccc(C(F)(F)F)c1` [Compound 4], the “ΔGexpt HNE (ΔG = RTln(IC50))” value [1] is listed as -9.7 kcal/mol and the IC50 [2] is listed as 69 nM.

In the case of `CNc1nc2n(n1)[C@H](c1ccc(C#N)cc1)C(C#N)=C(C)N2c1cccc(C(F)(F)F)c1` [Compound 5], the “ΔGexpt HNE (ΔG = RTln(IC50))” value [1] is reported as -12.5 kcal/mol, the IC50 [3, 6] is reported as 1.3 ± 0.2 nM and the IC50 [3, 7] is reported as 1.26 nM. The IC50 [4, 8] was 190 ± 10 nM, the “IC50 ratio (PR3/HNE)” value [5] was 146 and the IC50 [2] was 0.59 nM.

In the case of `CC1=C(C#N)[C@@H](c2ccc(C#N)cc2)n2nc(NC(=O)C3CC3)nc2N1c1cccc(C(F)(F)F)c1` [Compound 6], the “ΔGexpt HNE (ΔG = RTln(IC50))” value [1] is reported as -12.8 kcal/mol, the IC50 [3, 6] is reported as 0.6 nM and the IC50 [3, 7] is reported as 0.794 nM. The IC50 [4, 8] was 7.7 ± 0.6 nM, the “IC50 ratio (PR3/HNE)” value [5] was 13 and the IC50 [2] was 0.35 nM.

With `COC(=O)Nc1nc2n(n1)[C@H](c1ccc(C#N)cc1)C(C#N)=C(C)N2c1cccc(C(F)(F)F)c1` [Compound 7] the “ΔGexpt HNE (ΔG = RTln(IC50))” value [1] was -13.3 kcal/mol, the IC50 [3, 6] was 1.1 ± 0.1 nM and the IC50 [3, 7] was 1.26 nM. For the same molecule, the IC50 ([4]; read-out: pIC50 PR3 (converted)) was 20 nM, the “IC50 ratio (PR3/HNE)” value [5] was 19 and the IC50 [2] was 0.17 nM.

For `CNC(=O)Nc1nc2n(n1)[C@H](c1ccc(C#N)cc1)C(C#N)=C(C)N2c1cccc(C(F)(F)F)c1` [Compound 8], the “ΔGexpt HNE (ΔG = RTln(IC50))” value [1] was -12.9 kcal/mol, the IC50 [3, 6] was 0.8 ± 0.1 nM and the IC50 [3, 7] was 0.794 nM. The IC50 [4, 8] was 58.9 ± 6 nM, the “IC50 ratio (PR3/HNE)” value [5] was 74 and the IC50 [2] was 0.3 nM.

In the case of `CC1=C(C#N)[C@@H](c2ccc(C#N)cc2)n2nc(NS(C)(=O)=O)nc2N1c1cccc(C(F)(F)F)c1` [Compound 9], the “ΔGexpt HNE (ΔG = RTln(IC50))” value [1] is listed as -10.8 kcal/mol and the IC50 [2] is listed as 12 nM.

For `CNS(=O)(=O)Nc1nc2n(n1)[C@H](c1ccc(C#N)cc1)C(C#N)=C(C)N2c1cccc(C(F)(F)F)c1` [Compound 10], the “ΔGexpt HNE (ΔG = RTln(IC50))” value [1] is listed as -9.9 kcal/mol and the IC50 [2] is listed as 50 nM.

In the case of `CC1=C(C#N)[C@@H](c2ccc(C#N)cc2)n2nc(NC(=O)C3CCCCC3)nc2N1c1cccc(C(F)(F)F)c1` [Compound 11], the IC50 [2] is given as < 0.3 nM.
